Columns and labels:
Type in all cases: functional, cell-based
[1] = Antiproliferative activity against human MEXF 394NL cells
[2] = Antiproliferative activity against human OVXF 899L cells
SF-268 = assay: Antiproliferative activity against human SF268 cells
[3] = Antiproliferative activity against human CNXF 498NL cells
[4] = Antiproliferative activity against human LXF 529L cells
[5] = Antiproliferative activity against human LXF 629L cells
NCI-H460 = assay: Antiproliferative activity against human H460 cells
[6] = Antiproliferative activity against human MAXF 401NL cells
MCF7 = assay: Antiproliferative activity against human MCF7 cells
[7] = Antiproliferative activity against human MEXF 276L cells; details: MEXF276L
[8] = Antiproliferative activity against human MEXF 462NL cells
[9] = Antiproliferative activity against human MEXF 514NL cells
[10] = Antiproliferative activity against human MEXF 520L cells
[11] = Antiproliferative activity against human OVXF 1619L cells
[12] = Antiproliferative activity against human BXF 1218L cells
T-24 = assay: Antiproliferative activity against human T24 cells
HCT-116 = assay: Antiproliferative activity against human HCT116 cells
HT-29 = assay: Antiproliferative activity against human HT29 cells
[13] = Antiproliferative activity against human GXF 251L cells
[14] = Antiproliferative activity against human HNXF 536L cells
[15] = Antiproliferative activity against human LXF 1121L cells
[16] = Antiproliferative activity against human LXF 289L cells
[17] = Antiproliferative activity against human LXF 526L cells
OVCAR-3 = assay: Antiproliferative activity against human OVCAR-3 cells
[18] = Antiproliferative activity against human PAXF 1675L cells
PANC-1 = assay: Antiproliferative activity against human PANC1 cells
CWR22R = assay: Antiproliferative activity against human 22RV1 cells
DU-145 = assay: Antiproliferative activity against human DU145 cells
LNCaP = assay: Antiproliferative activity against human LNCAP cells
[19] = Antiproliferative activity against human PC3M cells; details: PC-3M
[20] = Antiproliferative activity against human PXF 1752L cells
[21] = Antiproliferative activity against human RXF 1781L cells
[22] = Antiproliferative activity against human RXF 393NL cells
[23] = Antiproliferative activity against human RXF 486NL cells […]
[24] = Antiproliferative activity against human RXF 944NL cells
[25] = Antiproliferative activity against human UXF 1138L cells

With `O=C1N[C@H]2n3c(cc(Br)c3Br)C(=O)N3CCC[C@]23N1` the IC50 ([1]; mexf 394nl) was over 10 µM, the IC50 ([2]; ovxf 899l) was over 10 µM and the IC50 (SF-268; sf-268) was over 10 µM. The IC50 ([3]; cnxf 498nl) was over 10 µM and the IC50 ([4]; lxf 529l) was over 10 µM.
Compound `O=C1N[C@H]2n3c(cc(Br)c3Br)C(=O)N3CCC[C@]23N1` [DIBROMOPHAKELLSTATIN] has an IC50 ([1]; mexf 394nl) of 1.35 µM, an IC50 ([2]; ovxf 899l) of 0.05 µM and an IC50 (SF-268; sf-268) of 0.55 µM. The IC50 ([3]; cnxf 498nl) was 0.72 µM and the IC50 ([4]; lxf 529l) was 1.62 µM.
With `O=C1NC2n3c(cc(Br)c3Br)C(=O)N3CCCC23N1` (racemic) the IC50 [5] was over 10 µM, the IC50 (NCI-H460) was over 10 µM and the IC50 [6] was over 10 µM. For the same compound, the IC50 (MCF7) was over 10 µM, the IC50 [7] was over 10 µM and the IC50 ([1]; Homo sapiens, MEXF 394NL) was 1.37 µM. The IC50 [8] was over 10 µM, the IC50 [9] was 4.41 µM and the IC50 [10] was over 10 µM. For the same compound, the IC50 [11] was 2.23 µM, the IC50 ([2]; Homo sapiens, OVXF 899L) was 0.6 µM and the IC50 [12] was over 10 µM. It also gave an IC50 (T-24) of over 10 µM, an IC50 (SF-268; Homo sapiens, SF-268) of 2.28 µM and an IC50 (HCT-116) of over 10 µM. It also gave an IC50 (HT-29) of over 10 µM, an IC50 [13] of over 10 µM and an IC50 ([3]; Homo sapiens, CNXF 498NL) of 0.93 µM. The IC50 [14] was over 10 µM, the IC50 [15] was over 10 µM and the IC50 [16] was over 10 µM. For the same compound, the IC50 [17] was over 10 µM, the IC50 ([4]; Homo sapiens, LXF 529L) was 0.96 µM and the IC50 (OVCAR-3) was over 10 µM. For the same compound, the IC50 [18] was over 10 µM, the IC50 (PANC-1) was 4.06 µM and the IC50 (CWR22R) was over 10 µM. The IC50 (DU-145) was over 10 µM, the IC50 (LNCaP) was over 10 µM and the IC50 [19] was 2.42 µM. It also gave an IC50 [20] of over 10 µM, an IC50 [21] of over 10 µM and an IC50 [22] of over 10 µM. For the same compound, the IC50 [23] was over 10 µM, the IC50 [24] was over 10 µM and the IC50 [25] was 1.21 µM.
In the case of `CCOC(=O)N1C(=O)N(OS(=O)(=O)c2ccc(C)cc2)C23CCCN2C(=O)c2cc(Br)c(Br)n2C13` (racemic), the IC50 [5] is reported as 6.52 µM, the IC50 (NCI-H460) is reported as over 10 µM and the IC50 [6] is reported as 8.16 µM. For the same compound, the IC50 (MCF7) was over 10 µM, the IC50 [7] was 9.44 µM and the IC50 ([1]; Homo sapiens, MEXF 394NL) was 4.02 µM. The IC50 [8] was over 10 µM, the IC50 [9] was over 10 µM and the IC50 [10] was over 10 µM. The IC50 [11] was 4.83 µM, the IC50 ([2]; Homo sapiens, OVXF 899L) was 8.89 µM and the IC50 [12] was 7.42 µM. It also gave an IC50 (T-24) of 9.98 µM, an IC50 (SF-268; Homo sapiens, SF-268) of 6.45 µM and an IC50 (HCT-116) of over 10 µM. For the same compound, the IC50 (HT-29) was over 10 µM, the IC50 [13] was over 10 µM and the IC50 ([3]; Homo sapiens, CNXF 498NL) was over 10 µM. It also gave an IC50 [14] of 7.24 µM, an IC50 [15] of over 10 µM and an IC50 [16] of over 10 µM. The IC50 [17] was 7.96 µM, the IC50 ([4]; Homo sapiens, LXF 529L) was over 10 µM and the IC50 (OVCAR-3) was over 10 µM. It also gave an IC50 [18] of over 10 µM, an IC50 (PANC-1) of 5 µM and an IC50 (CWR22R) of over 5.92 µM. It also gave an IC50 (DU-145) of over 10 µM, an IC50 (LNCaP) of over 10 µM and an IC50 [19] of 8.6 µM. The IC50 [20] was over 10 µM, the IC50 [21] was over 10 µM and the IC50 [22] was over 10 µM. It also gave an IC50 [23] of over 10 µM, an IC50 [24] of 6.3 µM and an IC50 [25] of 8.96 µM.
Work on `O=C1c2cc(Br)c(Br)n2C2C(Cl)(Cl)C23CCCN13` (racemic) yielded an IC50 ([1]; Homo sapiens, MEXF 394NL) of 7.87 µM, an IC50 ([2]; Homo sapiens, OVXF 899L) of 5.37 µM and an IC50 (SF-268; Homo sapiens, SF-268) of 3.91 µM. The IC50 ([3]; Homo sapiens, CNXF 498NL) was 5.84 µM and the IC50 ([4]; Homo sapiens, LXF 529L) was 9.84 µM.
`CN1C(=O)c2cc(Br)c(Br)n2C2C1C2(Cl)Cl` (racemic) showed an IC50 ([1]; Homo sapiens, MEXF 394NL) of 1.35 µM, an IC50 ([2]; Homo sapiens, OVXF 899L) of over 10 µM and an IC50 (SF-268; Homo sapiens, SF-268) of over 10 µM. It also gave an IC50 ([3]; Homo sapiens, CNXF 498NL) of over 10 µM and an IC50 ([4]; Homo sapiens, LXF 529L) of over 10 µM.

— ChEMBL document CHEMBL1146284, “Antitumor activity of the marine natural product dibromophakellstatin in vitro” (Bioorg Med Chem Lett, 2007)
